Laboratory results taken from US8426369B2, “Prevention and treatment of colon cancer” (Rutgers, The State University of New Jersey, priority 2006, dated 2013).

Tested on: iNOS
Assay: Cytokine-induced iNOS protein expression in HT-29 cells (Western blot)
Type: cell-based, human
Settings: HT-29; for inhibition of iNOS expression: with cytokine mixture (each 10 ng/ml), 15 hr
Method: HT-29 human colon adenocarcinoma cells were grown in 10% FBC/DMEM. Cells (about 600,000 cells/well) were plated in 6-well plate and treated with stilbene analogs shown in FIG. 4 (each at 10 μM) for 15 hours together with cytokine mixture comprising TNF-a, IFN0g, and LPS (each at 10 ng/ml). Cell lysates were prepared and subjected to Western Blot analysis.
Human colon carcinoma cell lines HT-29 was obtained from the American Type Culture Collection (Manassas, Va.). The cells were maintained in Dulbecco's modification of Eagle's medium (DMEM) supplemented with 10% FBS and 1% penicillin/streptomycin at 37° C. and 5% CO2. The cytokine mixture, consisting of 10 ng/ml of TNF-α, IFN-γ and LPS, was used to induce iNOS and COX-2, unless otherwise mentioned. The cells were treated with the test compound either alone or in combination with cytokines for different time intervals and harvested for protein or RNA.
The cell culture conditions and the reagents used in this example were described in Example 32. Whole cell extracts were collected after the various treatments and analyzed by western blotting. The protein samples were separated on 4-15% SDS-PAGE gels (Biorad, Hercules, Calif.) followed by transfer to a polyvinylidene fluoride membrane. The membranes were blocked with 5% milk in Tris buffer for 1 h and then incubated with the appropriate primary antibody solutions overnight at 4° C. The membranes were washed with Tris buffer, and incubated with horseradish peroxidase conjugated secondary antibody solutions for 1 h at room temperature.
The protein bands were visualized using a chemiluminescence based kit from Amersham Biosciences (Buckinghamshire, UK). The primary antibodies against iNOS, COX-2, IκBα, cyclin D1, c-myc (Santa Cruz Bio-technology, Santa Cruz, Calif.), phospho-STAT3, phospho-Erk1/2, phospho-JNK1/2, phospho-p38, phospho-Akt, phospho-ATF2, phospho-Elk1, PARP (Cell Signaling Technology Inc., Beverly, Mass.) and actin (Sigma, St. Louis, Mo.) and secondary antibodies (Santa Cruz Biotechnology, Santa Cruz, Calif.) were used for probing the abundance of the target protein in the samples.

For `COc1cc(/C=C/c2ccc(O)cc2)cc(OC)c1` [pterostilbene, (E)-4-(3,5-dimethoxystyryl)phenol], the “inhibition of iNOS expression” value (1 μM) was 14%, the “inhibition of iNOS expression” value (10 μM) was 61% and the “induction of iNOS by the cytokine mixture” value (30 μM, 9, 12 and 15 h) was “markedly blocked”. The “inhibition of iNOS expression” value (30 μM) was 77% and the “induction of iNOS by the cytokine mixture, different concentrations” value (different concentrations) was “dose-dependent manner”.
